Results from patent publication EP1608360B1, “SYNERGISTIC HEPATOPROTECTIVE COMPOSITION AND A METHOD THEREOF” (COUNCIL OF SCIENTIFIC AND INDUSTRIAL RESEARCH, priority 2003, dated 2004).
“And” between values parts separate entries of the source, which are not always exact repeats. Equal entries are not always repeated. Where two headings read alike, the source gives them in different places.

Legend:
[1] = tested on: Paracetamol (APAP) induced hepatic injury; type: in vivo; conditions: Table-2
Procedure: […] Formulation is extremely safe having a therapeutic index of > 40. No mortality was recorded upto a dose of 2g-kg-1 p.o. in mice.
Table-2: Hepatoprotective potential of Andrographolide (AP) against Paracetamol (APAP) induced hepatic injury in Rodents (prophylactic). […]

[2] = After 72 hrs; cited from earlier work
[3] = tested on: Acetaminophen (APAP) induced hepatic injury; assay: Hepatoprotective activity (in vivo), pre-treatment, diethyl-ether inhalation plus Acetaminophen (APAP), prophylactic study (Table 4); design: species or system Mice: Swiss albino; conditions: 50 mg/kg p.o. at 72h, 48h, 24h, 1h before diethyl-ether and 1h after APAP 200mg/kg i.p.
Procedure: Table-4: Hepatoprotective activity (in vivo) of TCA and silymarin (Pre-treatment) fed at 72h, 48h, 24h, 1h before inhalation of diethyl - ether and 1h after Acetaminophen (APAP) 200mg/kg given i.p. 6h after exposure to diethyl - ether (prophylactic study).

[4] = tested on: paracetamol (APAP) induced hepatic injury; assay: Hepatoprotective activity (in vivo) against paracetamol (APAP) induced hepatic injury in mice, prophylactic study (Table 1); conditions: 50 mg/kg p.o. + APAP
Procedure: All the list materials were administered P.O. routes in a uniform dose level of 50 mg kg-1. Formulation is extremely safe having a therapeutic index of > 40. No mortality was recorded upto a dose of 2g-kg-1 p.o. in mice.
• Fig.1 Low Power view 10 X of bridging necroses • Fig.2 High Power view 40X of bridging necroses • Fig.3 High Power view 40X of centrilobular necrosis • Fig.4 Lower Power view 10X of centrilobular necrosis • Fig.5 Effect of paracetamol on liver when given along with high doses of hepatoprotective formulations • Fig.6 Ballooning degeneration of cells along with cytoplasmic rarefaction clearing Table 1: Hepatoprotective activity (in vivo) of synergistic formulation and Silymarin agains paracetamol (APAP) induced hepatic injury in mice2. (prophylactic study)

[5] = 6.25 mg kg^-1 + APAP, prophylactic
[6] = 12.5 mg kg^-1 + APAP, prophylactic
[7] = 25 mg kg^-1 + APAP, prophylactic
[8] = 50 mg kg^-1 + APAP, prophylactic
[9] = 50 mg kg^-1 + APAP, prophylactic, listed as Andrographolide
[10] = 50 mg kg^-1 + APAP, prophylactic, listed as andrographolide
[11] = 50 mg kg^-1 only (per se), no APAP
[12] = 100 mg kg^-1 + APAP, prophylactic

## C=C1CC[C@@H]2[C@](C)(CO)[C@H](O)CC[C@@]2(C)[C@@H]1C/C=C1/C(=O)OC[C@H]1O [AP, andrographolide]
[1]; [5]
  Hepatic GSH (glutathione): 2.85±0.19 µ mole GSH/g liver
  Hepatic GSH, percent hepatoprotective activity: (17.40) %
  Hepatic LP (lipid peroxidation): 58.96±2.04 n mole MDA/g liver
  Hepatic LP, percent hepatoprotective activity: (10.61) %
  Hepatic Protein: 133.20±5.39 mg %
  Hepatic Protein, percent hepatoprotective activity: (6.75) %
  Serum ALP: 55.84±2.27 µ mole of p-nitrophenol formed /min/L
  Serum ALP, percent hepatoprotective activity: (18.49) %
  Serum Albumin: 3.10±0.08 g %
  Serum Albumin, percent hepatoprotective activity: (32.84) %
  Serum GOT: 992.69±66.36 Units
  Serum GOT, percent hepatoprotective activity: (14.54) %
  Serum GPT: 1224.99±63.65 Units
  Serum GPT, percent hepatoprotective activity: (20.76) %
  Serum LDH: 1454.48±66.02 units
  Serum LDH, percent hepatoprotective activity: (25.45) %
  Serum TG: 63.92±2.11 mg %
  Serum TG, percent hepatoprotective activity: (24.17) %
[1]; [6]
  Hepatic GSH (glutathione): 3.78±0.19 µ mole GSH/g liver
  Hepatic GSH, percent hepatoprotective activity: (40.19) %
  Hepatic LP (lipid peroxidation): 53.10±2.07 n mole MDA/g liver
  Hepatic LP, percent hepatoprotective activity: (46.23) %
  Hepatic Protein: 141.36±4.25 mg %
  Hepatic Protein, percent hepatoprotective activity: (23.52) %
  Serum ALP: 49.41±1.35 µ mole of p-nitrophenol formed /min/L
  Serum ALP, percent hepatoprotective activity: (37.13) %
  Serum Albumin: 3.29±0.15 g %
  Serum Albumin, percent hepatoprotective activity: (47.02) %
  Serum GOT: 816.54±47.10 Units
  Serum GOT, percent hepatoprotective activity: (32.07) %
  Serum GPT: 1051.99±46.30 Units
  Serum GPT, percent hepatoprotective activity: (33.12) %
  Serum LDH: 1255.65±61.32 units
  Serum LDH, percent hepatoprotective activity: (37.14) %
  Serum TG: 56.59±2.42 mg %
  Serum TG, percent hepatoprotective activity: (41.39) %
[1]; [7]
  Hepatic GSH (glutathione): 4.15±0.15 µ mole GSH/g liver
  Hepatic GSH, percent hepatoprotective activity: (49.26) %
  Hepatic LP (lipid peroxidation): 50.62±2.23 n mole MDA/g liver
  Hepatic LP, percent hepatoprotective activity: (51.45) %
  Hepatic Protein: 148.36±3.57 mg %
  Hepatic Protein, percent hepatoprotective activity: (37.92) %
  Serum ALP: 43.92±2.19 µ mole of p-nitrophenol formed /min/L
  Serum ALP, percent hepatoprotective activity: (53.04) %
  Serum Albumin: 3.32±0.15 g %
  Serum Albumin, percent hepatoprotective activity: (49.25) %
  Serum GOT: 720.76±50.62 Units
  Serum GOT, percent hepatoprotective activity: (41.40) %
  Serum GPT: 881.23±36.85 Units
  Serum GPT, percent hepatoprotective activity: (45.45) %
  Serum LDH: 1014.27±44.04 units
  Serum LDH, percent hepatoprotective activity: (51.34) %
  Serum TG: 51.68±2.73 mg %
  Serum TG, percent hepatoprotective activity: (52.92) %
[1]; [8]
  Hepatic GSH (glutathione): 4.400±0.25 µ mole GSH/g liver
  Hepatic GSH, percent hepatoprotective activity: (57.35) %
  Hepatic LP (lipid peroxidation): 47.90±1.93 n mole MDA/g liver
  Hepatic LP, percent hepatoprotective activity: (58.35) %
  Hepatic Protein: 155.34±3.11 mg %
  Hepatic Protein, percent hepatoprotective activity: (52.27) %
  Serum ALP: 40.18±2.03 µ mole of p-nitrophenol formed /min/L
  Serum ALP, percent hepatoprotective activity: (63.88) %
  Serum Albumin: 3.55±0.18 g %
  Serum Albumin, percent hepatoprotective activity: (66.41) %
  Serum GOT: 534.56±19.65 Units
  Serum GOT, percent hepatoprotective activity: (60.14) %
  Serum GPT: 760.73±49.35 Units
  Serum GPT, percent hepatoprotective activity: (54.15) %
  Serum LDH: 952.45±34.82 units
  Serum LDH, percent hepatoprotective activity: (54.97) %
  Serum TG: 49.22±1.78 mg %
  Serum TG, percent hepatoprotective activity: (58.70) %
[1]; [9]
  Hepatic GSH, percent hepatoprotective activity: 57.35%
  Hepatic LP, percent hepatoprotective activity: 58.35%
  Hepatic Protein, percent hepatoprotective activity: 52.27%
  Serum ALP, percent hepatoprotective activity: 63.88%
  Serum Albumin, percent hepatoprotective activity: 66.41%
  Serum GOT, percent hepatoprotective activity: 60.14%
  Serum GPT, percent hepatoprotective activity: 54.15%
  Serum LDH, percent hepatoprotective activity: 54.97%
  Serum TG, percent hepatoprotective activity: 58.70%
[1]; [10]
  Hepatic GSH, percent hepatoprotective activity: 57.35%
  Hepatic LP, percent hepatoprotective activity: 58.35% and 55.35%
  Serum ALP, percent hepatoprotective activity: 63.88%
  Serum Albumin, percent hepatoprotective activity: 66.41%
  Serum GOT, percent hepatoprotective activity: 60.14%
  Serum GPT, percent hepatoprotective activity: 54.15%
  Serum LDH, percent hepatoprotective activity: 54.97%
  Serum TG, percent hepatoprotective activity: 58.70%
[1]; [11]
  Hepatic GSH (glutathione): 6.40±0.21 µ mole GSH/g liver
  Hepatic LP (lipid peroxidation): 31.60±2.09 n mole MDA/g liver
  Hepatic Protein: 182.05±10.23 mg %
  Serum ALP: 27.72±2.71 µ mole of p-nitrophenol formed /min/L
  Serum Albumin: 3.96±0.08 g %
  Serum GOT: 134.92±4.25 Units
  Serum GPT: 126.11±3.09 Units
  Serum LDH: 181.02±10.29 units
  Serum TG: 32.29±2.31 mg %
[1]; [12]
  Hepatic GSH (glutathione): 4.60±0.24 µ mole GSH/g liver
  Hepatic GSH, percent hepatoprotective activity: (60.29) %
  Hepatic LP (lipid peroxidation): 45.30±2.08 n mole MDA/g liver
  Hepatic LP, percent hepatoprotective activity: (64.95) %
  Hepatic Protein: 146.78±5.09 mg %
  Hepatic Protein, percent hepatoprotective activity: (34.66) %
  Serum ALP: 44.14±2.24 µ mole of p-nitrophenol formed /min/L
  Serum ALP, percent hepatoprotective activity: (52.40) %
  Serum Albumin: 3.38±0.26 g %
  Serum Albumin, percent hepatoprotective activity: (53.73) %
  Serum GOT: 795.92±27.59 Units
  Serum GOT, percent hepatoprotective activity: (34.12) %
  Serum GPT: 764.37±44.32 Units
  Serum GPT, percent hepatoprotective activity: (53.89) %
  Serum LDH: 1256.05±33.97 units
  Serum LDH, percent hepatoprotective activity: (37.11) %
  Serum TG: 47.39±2.13 mg %
  Serum TG, percent hepatoprotective activity: (63.00) %
[2]
  excreted, mostly by urinary excretion: ~90%

## CCCCCCCC/C=C/CCCCCCCCCCCCCC(=O)O [TCA, trans-tetracos-15-enoic acid]
[3]
  Hepatic Lipid peroxidation: 55.48 n moles MDA/g liver
  Serum ALP: 52.96 µ mole of p-nitrophenol formed/min/ L
  Serum Bilirubin: 56.35 mg %
  Serum GOT: 54.92 Units
  Serum GPT: 57.99 Units
  Serum Triglycerides: 66.05 mg %
[3]; listed as t-tca
  Serum ALP: 52.96 µ mole of p-nitrophenol formed
[4]
  Hepatic Glutathione, percent hepatoprotective activity: 53.15%
  Hepatic Lipid peroxidation, percent hepatoprotective activity: 64.15%
  Serum ALP, percent hepatoprotective activity: 82.35%
  Serum GOT, percent hepatoprotective activity: 62.00%
  Serum GPT, percent hepatoprotective activity: 75.00%
  Serum Triglycerides, percent hepatoprotective activity: 66.45%
